Literature values in article PMC10975502 (Methods in molecular biology (Clifton, N.J.), 2022).

Settings: result in words

cyclo(FfΦRrRrQ) [CPP12]
activity in cytosolic delivery: high activity
